Results as given in ChEMBL document CHEMBL1159126, “Salicylanilide carbamates: antitubercular agents active against multidrug-resistant Mycobacterium tuberculosis strains” (Bioorg Med Chem, 2010).
≈ marks a conversion by molar mass, not a printed value.

Legend:
Assay in all cases: microbe, parasite or virus in culture
[1] = test system: Mycobacterium tuberculosis; conditions: isolate 7357/98, 504 h
[2] = test system: Mycobacterium tuberculosis; conditions: isolate 2092/05, 504 h
[3] = test system: Mycobacterium tuberculosis; conditions: isolate Praha 128, 504 h
[4] = test system: Mycobacterium tuberculosis; conditions: isolate Praha 128, 336 h
[5] = test system: Mycobacterium tuberculosis; conditions: isolate Praha 1, 336 h
[6] = test system: Mycobacterium tuberculosis; conditions: isolate 9449/06, 504 h
[7] = test system: Mycobacterium tuberculosis; conditions: isolate 7357/98, 336 h
[8] = test system: Mycobacterium tuberculosis; conditions: isolate 9449/06, 336 h
[9] = test system: Mycobacterium tuberculosis; conditions: isolate 2092/05, 336 h
[10] = test system: Mycobacterium tuberculosis; conditions: isolate Praha 1, 504 h

| Structure (SMILES) | MIC [1] | MIC [2] | MIC [3] | MIC [4] | MIC [5] | MIC [6] | MIC [7] | MIC [8] | MIC [9] | MIC [10] |
| --- | --- | --- | --- | --- | --- | --- | --- | --- | --- | --- |
| CCCCCCNC(=O)Oc1ccc(Cl)cc1C(=O)Nc1ccc(Cl)c(Cl)c1 | 1 µM (≈ 0.444 µg/mL) | 0.5 µM (≈ 0.222 µg/mL) | 0.5 µM (≈ 0.222 µg/mL) | 0.5 µM (≈ 0.222 µg/mL) | 0.5 µM (≈ 0.222 µg/mL) | 0.5 µM (≈ 0.222 µg/mL) | 0.5 µM (≈ 0.222 µg/mL) | 0.5 µM (≈ 0.222 µg/mL) | 0.5 µM (≈ 0.222 µg/mL) | 1 µM (≈ 0.444 µg/mL) |
| CCNC(=O)Oc1ccc(Cl)cc1C(=O)Nc1ccc(Cl)c(Cl)c1 | 1 µM (≈ 0.388 µg/mL) | 0.5 µM (≈ 0.194 µg/mL) | 0.5 µM (≈ 0.194 µg/mL) | 0.5 µM (≈ 0.194 µg/mL) | 0.5 µM (≈ 0.194 µg/mL) | 0.5 µM (≈ 0.194 µg/mL) | 0.5 µM (≈ 0.194 µg/mL) | 0.5 µM (≈ 0.194 µg/mL) | 0.5 µM (≈ 0.194 µg/mL) | 1 µM (≈ 0.388 µg/mL) |
| CCCCNC(=O)Oc1ccc(Cl)cc1C(=O)Nc1ccc(Cl)c(Cl)c1 | 1 µM (≈ 0.416 µg/mL) | 1 µM (≈ 0.416 µg/mL) | 1 µM (≈ 0.416 µg/mL) | 0.5 µM (≈ 0.208 µg/mL) | 0.5 µM (≈ 0.208 µg/mL) | 0.5 µM (≈ 0.208 µg/mL) | 0.5 µM (≈ 0.208 µg/mL) | 1 µM (≈ 0.416 µg/mL) | 0.5 µM (≈ 0.208 µg/mL) | 1 µM (≈ 0.416 µg/mL) |
| CCCCCNC(=O)Oc1ccc(Cl)cc1C(=O)Nc1ccc(Cl)c(Cl)c1 | 0.5 µM (≈ 0.215 µg/mL) | 0.5 µM (≈ 0.215 µg/mL) | 0.5 µM (≈ 0.215 µg/mL) | 0.5 µM (≈ 0.215 µg/mL) | 0.5 µM (≈ 0.215 µg/mL) | 0.5 µM (≈ 0.215 µg/mL) | 0.5 µM (≈ 0.215 µg/mL) | 0.5 µM (≈ 0.215 µg/mL) | 0.5 µM (≈ 0.215 µg/mL) | 1 µM (≈ 0.43 µg/mL) |
| CCCCCNC(=O)Oc1ccc(Cl)cc1C(=O)Nc1ccc(Cl)cc1 | 2 µM (≈ 0.791 µg/mL) | 1 µM (≈ 0.395 µg/mL) | 1 µM (≈ 0.395 µg/mL) | 1 µM (≈ 0.395 µg/mL) | 1 µM (≈ 0.395 µg/mL) | 1 µM (≈ 0.395 µg/mL) | 1 µM (≈ 0.395 µg/mL) | 1 µM (≈ 0.395 µg/mL) | 1 µM (≈ 0.395 µg/mL) | 2 µM (≈ 0.791 µg/mL) |
| CCCCCCCNC(=O)Oc1ccc(Cl)cc1C(=O)Nc1ccc(Cl)c(Cl)c1 | 0.5 µM (≈ 0.229 µg/mL) | 1 µM (≈ 0.458 µg/mL) | 1 µM (≈ 0.458 µg/mL) | 0.5 µM (≈ 0.229 µg/mL) | 0.5 µM (≈ 0.229 µg/mL) | 0.5 µM (≈ 0.229 µg/mL) | 0.5 µM (≈ 0.229 µg/mL) | 0.5 µM (≈ 0.229 µg/mL) | 0.5 µM (≈ 0.229 µg/mL) | 1 µM (≈ 0.458 µg/mL) |
| CCCCCCCCNC(=O)Oc1ccc(Cl)cc1C(=O)Nc1ccc(Cl)c(Cl)c1 | 1 µM (≈ 0.472 µg/mL) | 1 µM (≈ 0.472 µg/mL) | 1 µM (≈ 0.472 µg/mL) | 0.5 µM (≈ 0.236 µg/mL) | 1 µM (≈ 0.472 µg/mL) | 0.5 µM (≈ 0.236 µg/mL) | 1 µM (≈ 0.472 µg/mL) | 1 µM (≈ 0.472 µg/mL) | 0.5 µM (≈ 0.236 µg/mL) | 2 µM (≈ 0.944 µg/mL) |
| CCCCCCNC(=O)Oc1ccc(Cl)cc1C(=O)Nc1cccc(Cl)c1 | 1 µM (≈ 0.409 µg/mL) | 2 µM (≈ 0.819 µg/mL) | 2 µM (≈ 0.819 µg/mL) | 1 µM (≈ 0.409 µg/mL) | 1 µM (≈ 0.409 µg/mL) | 1 µM (≈ 0.409 µg/mL) | 1 µM (≈ 0.409 µg/mL) | 1 µM (≈ 0.409 µg/mL) | 1 µM (≈ 0.409 µg/mL) | 2 µM (≈ 0.819 µg/mL) |
| NNC(=O)c1ccncc1 [ISONIAZID] | 16 µM (≈ 2.19 µg/mL) | 16 µM (≈ 2.19 µg/mL) | 16 µM (≈ 2.19 µg/mL) | 16 µM (≈ 2.19 µg/mL) | 16 µM (≈ 2.19 µg/mL) | 16 µM (≈ 2.19 µg/mL) | 16 µM (≈ 2.19 µg/mL) | 16 µM (≈ 2.19 µg/mL) | 16 µM (≈ 2.19 µg/mL) | 16 µM (≈ 2.19 µg/mL) |
